Data reported in patent US6825185B2, “Substituted aryl compounds as novel cyclooxygenase-2 selective inhibitors, compositions and methods of use” (NitroMed, Inc., priority 2000, dated 2004).

Legend:
COX-1 = COX-1 (Homo sapiens, UniProt P23219); assay: COX-1 enzyme activity in human whole blood (A23187 stimulated, thromboxane B2 EIA); format: cell-based; parameters: Human blood (≈50 mL) from male or female donors who had not received any aspirin or NSAIDs for 14 days; endogenous in cells; host or cells: human whole blood from donors; details: test compound at 100 μM
Chain of COX-1 (P23219 24-599): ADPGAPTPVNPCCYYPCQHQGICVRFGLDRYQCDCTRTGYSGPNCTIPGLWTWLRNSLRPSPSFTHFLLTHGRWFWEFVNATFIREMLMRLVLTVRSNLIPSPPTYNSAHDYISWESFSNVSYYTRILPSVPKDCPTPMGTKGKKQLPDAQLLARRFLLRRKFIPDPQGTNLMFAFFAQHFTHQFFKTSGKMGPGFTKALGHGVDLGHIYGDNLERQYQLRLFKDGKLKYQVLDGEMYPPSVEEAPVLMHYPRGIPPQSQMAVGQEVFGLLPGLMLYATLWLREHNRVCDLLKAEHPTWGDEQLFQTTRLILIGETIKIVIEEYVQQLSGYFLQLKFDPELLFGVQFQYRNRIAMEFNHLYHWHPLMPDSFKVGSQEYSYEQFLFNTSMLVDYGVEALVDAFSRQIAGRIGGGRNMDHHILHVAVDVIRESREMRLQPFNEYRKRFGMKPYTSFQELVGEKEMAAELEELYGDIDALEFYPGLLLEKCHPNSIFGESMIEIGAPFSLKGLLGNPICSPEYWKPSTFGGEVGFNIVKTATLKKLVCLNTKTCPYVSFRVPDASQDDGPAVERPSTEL
Description: (§1) The assay for COX-1 and COX-2 enzyme activity, in the human whole blood was performed as described in Brideau et al., Inflamm Res., 45: 68-74 (1996)). Human blood (≈50 mL) from male or female donors who had not received any aspirin or NSAIDs for 14 days was collected at two local area blood donor centers and placed in polypropylene syringes containing sodium heparin (20 units per mL blood, final concentration). The blood was transported to the laboratory on ice packs and used within 1.5 hours of collection. Upon receipt in the laboratory, the blood was allowed to come to room temperature for 15 minutes prior to distribution in 1 mL aliquots per well of 24 well tissue culture plates. The plates were then placed on a gently rotating platform shaker in a 5% CO2 incubator at 37° C. for 15 minutes. Test compounds were dissolved in DMSO, at 1000 fold the final desired concentration, and further diluted, as indicated, in DMSO. One μL of each dilution of the test compound was added per well, in duplicate wells; wells not receiving test compound (e.g., basal, background or control wells) received 1 μL DMSO.
(§2) To induce COX-2, lipopolysaccharide (LPS) from E. coli (LPS, serotype 026:B6 or serotype 0127:B8, Sigma Chemical Co., St. Louis, Mo., Catalogue No. L3755 or L3129, respectively) was added at 10 μg/mL (2 μL of 5 mg/mL LPS in DMSO) to appropriate wells 15 minutes after the addition of the test compound. (Basal or background wells not incubated with LPS received 2 μL of DMSO.) For the stimulation of COX-1, the calcium ionophore, A23187 (free acid from Sigma Chemical Co., St. Louis, Mo., Catalogue No. C7522) was added at 25 μM (1 μL of 25 mM stock in DMSO) to separate wells 4.5 hours after the addition of the test compound. (Again, basal, background or control wells not stimulated with A23187 received 1 μL of DMSO.) At 5 hours after the addition of the test compound, all incubations were terminated by placement on ice and the addition of 2 mM EGTA (100 μL of 20 mM EGTA, tetrasodium, in PBS (phosphate buffered saline) without Ca^++ and Mg^++, pH 7.2)). The resulting solutions, were transferred by polyethylene transfer pipettes to 15 mL polypropylene centrifuge tubes and centrifuged at 1200 g for 10 minutes at 4° C. One hundred μL of plasma was removed from each blood sample and added to 1 mL of methanol in new 15 mL polypropylene centrifuge tubes, vortexed, and stored overnight at −20° C. The next day, the samples were centrifuged at 2000 g for 10 minutes at 4° C. and the supernatants transferred to glass tubes and evaporated to dryness. The samples were assayed for thromboxane B2 using EIA kits supplied by Cayman Chemical Co. (Ann Arbor, Mich., Catalogue No. 519031) in duplicate wells after reconstitution with EIA Buffer and appropriate dilution (2000 fold for COX-1 and 500 fold for Cox-2 samples).

COX-2 = target: T1, COX-2 (Homo sapiens, UniProt P35354); assay: COX-2 enzyme activity in human whole blood (LPS induced, thromboxane B2 EIA); format: cell-based; parameters: Human blood (≈50 mL) from male or female donors who had not received any aspirin or NSAIDs for 14 days; endogenous in cells; host or cells: human whole blood from donors, LPS-induced; details: test compound at 10 μM
T1 sequence (P35354 18-604): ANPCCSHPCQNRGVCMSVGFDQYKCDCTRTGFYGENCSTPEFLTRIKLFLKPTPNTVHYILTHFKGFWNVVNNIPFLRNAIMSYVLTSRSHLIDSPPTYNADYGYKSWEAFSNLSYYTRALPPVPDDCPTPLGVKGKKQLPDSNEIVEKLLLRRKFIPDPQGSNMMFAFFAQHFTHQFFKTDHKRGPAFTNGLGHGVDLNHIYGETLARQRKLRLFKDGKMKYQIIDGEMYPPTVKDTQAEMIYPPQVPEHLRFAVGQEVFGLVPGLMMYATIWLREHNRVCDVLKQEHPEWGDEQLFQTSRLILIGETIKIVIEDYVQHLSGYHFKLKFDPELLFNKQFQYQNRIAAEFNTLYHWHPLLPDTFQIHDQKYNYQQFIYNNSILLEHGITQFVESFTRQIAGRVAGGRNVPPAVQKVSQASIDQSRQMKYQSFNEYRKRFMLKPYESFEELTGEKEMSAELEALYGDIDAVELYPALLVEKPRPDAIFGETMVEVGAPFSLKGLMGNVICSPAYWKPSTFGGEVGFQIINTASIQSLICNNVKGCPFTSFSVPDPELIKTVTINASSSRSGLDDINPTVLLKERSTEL
Description: as §1, with “Human” for “The assay for COX-1 and COX-2 enzyme activity, in the human whole blood was performed as described in Brideau et al., Inflamm Res., 45: 68-74 (1996)). Human”
as §2, with “(Basal or background wells not incubated with LPS received 2 μL of DMSO.) For the stimulation of COX-1, the calcium ionophore, A23187 (free acid from Sigma Chemical Co., St. Louis, Mo., Catalogue No. C7522) was added at 25 μM (1 μL of 25 mM stock in DMSO) to separate wells 4.5 hours after the addition of the test compound.” left out, “dryness.” for “dryness. The samples were assayed for thromboxane B2 using EIA kits supplied by Cayman Chemical Co. (Ann Arbor, Mich., Catalogue No. 519031) in duplicate wells after reconstitution with EIA Buffer and appropriate dilution (2000 fold for COX-1 and 500 fold for Cox-2 samples).”

Compound | COX-1 Inhibition (% at 100 μM) (COX-1) | COX-2 Inhibition (% at 10 μM) (COX-2) | inhibition at 100 µM (COX-1) | inhibition at 10 µM (COX-2)
COc1cc(Cc2cc(F)cc(F)c2)c(-c2ccc(S(C)(=O)=O)cc2)cc1OC [Example 17d, 5-(1-(3′,5′-Difluorophenyl)methyl)-1,2-dimethoxy-4-(4-methylsulfonylphenyl)benzene] | 25% | 20% | – | –
CS(=O)(=O)c1ccc(-c2cc(O)c(O)cc2Cc2cc(F)cc(F)c2)cc1 [Example 17e, 5-(1-(3′,5′-Difluorophenyl)methyl)-1,2-dihydroxy-4-(4-methylsulfonylphenyl)benzene] | 35% | 25% | – | –
CCOC(=O)C1(C(=O)OCC)Oc2cc(Cc3cc(F)cc(F)c3)c(-c3ccc(S(C)(=O)=O)cc3)cc2O1 [Example 17f, 1,2-(Bis(ethoxycarbonyl))methylenedioxy-5-(1-(3′,5′-difluorophenyl)methyl)--4-(4-methylsulfonylphenyl)benzene] | 10% | 25% | – | –
CS(=O)(=O)c1ccc(-c2cc(O)c(O)cc2C(=O)c2cc(F)cc(F)c2)cc1 [Example 17h, 4-(1-(3′,5′-Difluorophenyl)-1-oxomethyl)-1,2-hydroxy-5-(4-methylsulfonylphenyl)benzene] | 65% | 55% | – | –
CS(=O)(=O)c1ccc(-c2cc3c(cc2Cc2cc(F)cc(F)c2)OC(C(=O)NCCO)CO3)cc1 (stereo not drawn) [Example 18b, (7-((3,5-Difluorophenyl)methyl)-6-(4-(methylsulfonyl)phenyl)(2H, 3H-benzo(e)1,4-dioxin-2-yl))-N-(2-hydroxyethyl)carboxamido] | 50% | 25% | – | –
CS(=O)(=O)c1ccc(-c2cc3c(cc2Cc2cc(F)cc(F)c2)OCC(C(=O)NCCO)O3)cc1 (stereo not drawn) [Example 18c, (6-((3,5-Difluorophenyl)methyl)-7-(4-(methylsulfonyl)phenyl)(2H, 3H-benzo(e)1,4-dioxin-2-yl))-N-(2-hydroxyethyl)carboxamide] | – | – | 90% | 40%
CS(=O)(=O)c1ccc(-c2cc3c(cc2Cc2cc(F)cc(F)c2)OC(C(=O)NCCO[N+](=O)[O-])CO3)cc1 (stereo not drawn) [Example 18d, (7-((3,5-Difluorophenyl)methyl)-6-(4-(methylsulfonyl)phenyl)(2H, 3H-benzo(e)1,4-dioxin-2-yl))-N-(2-(nitrooxy)ethyl)carboxamido] | 60% | 40% | – | –
O=[N+]([O-])OCc1ccc(-c2cc3c(cc2Cc2cc(F)cc(F)c2)OCO3)cc1 [Example 23d, ((4-(6-((3,5-Difluorophenyl)methyl)(2H-benzo(3,4-d)1,3-dioxolan-5-yl))phenyl)methyl)nitrooxy] | 65% | 30% | – | –
Ethyl 7-((3,5-difluorophenyl)methyl)-6-(4-(methylsulfonyl)phenyl)-2H, 3H-benzo(e)1,4-dioxin-2-carboxylate and ethyl 6-((3, 5-difluorophenyl)methyl)-7-(4-(methylsulfonyl)phenyl)-2H, 3H-benzo(e)1,4-dioxin-2-carboxylate [Example 18a] | 90% | 65% | – | –
